From US20240398732A1, “Treating Cancers with Combinations of Spironolactone and Acylfulvenes” (LANTERN PHARMA INC., priority 2021, published 2024)
“Also recorded” adds a separate entry of the source. Like-named read-outs stand apart in the source and are kept apart here.

Tests used:
[1] = system: U87 (glioblastoma cell line); assay: U87 cell growth / survival / viability in vitro; format: cell-based; settings: for IC50: Homo sapiens, U-87 MG
[2] = system: M1123 (glioblastoma cell line); assay: M1123 cell viability in vitro; format: cell-based
[3] = system: Mayo39 (Glioblastoma cell line); assay: Mayo39 cell viability in vitro; format: cell-based
[4] = system: U87, M1123 and Mayo39 glioblastoma cultures; assay: GBM cell viability, pooled statement on IC50 shift; format: cell-based; settings: with 5 μM Spironolactone
[5] = system: subcutaneous U87 xenograft tumors; settings: beginning on ~day 25
Experimental: (§1) SCID mice bearing pre-established subcutaneous U87 xenograft tumors were treated with Spironolactone alone, LP-184 alone or their combination. Spironolactone treatment began on post implantation day 8 at 25 mg/kg intraperitoneally 5 days per week, and LP-184 on day 9 at 4 mg/kg intravenously every other day for 4 doses.

[6] = system: subcutaneous U87 xenograft tumors; assay: Subcutaneous U87 xenograft in SCID mice; settings: Spironolactone 25 mg/kg i.p. 5 days per week from day 8; LP-184 4 mg/kg i.v. every other day for 4 doses from day 9
Experimental: as §1

[7] = system: RPMI 8226 human myeloma cell lines; assay: RPMI 8226 cell growth / cytotoxicity in vitro; format: cell-based
[8] = system: CHLA-06 (atypical teratoid rhabdoid tumor cell line); assay: CHLA-06 cell growth / survival in vitro; format: cell-based; settings: spironolactone alone (10 μM)
[9] = system: CAKI-2 (papillary renal cell carcinoma cell line); assay: CAKI-2 cell growth / survival in vitro; format: cell-based; settings: spironolactone alone
ERCC3 = molecular target: T1, ERCC3 (Homo sapiens, UniProt P19447); assay: ERCC3 western blot in glioblastoma cell lines; format: cell-based; settings: 10 μM spironolactone, over 24-72 hours
T1 construct: endogenous in cells; host or cells: M1123, Mayo39, U87 glioblastoma cell lines
T1 sequence (P19447 1-782): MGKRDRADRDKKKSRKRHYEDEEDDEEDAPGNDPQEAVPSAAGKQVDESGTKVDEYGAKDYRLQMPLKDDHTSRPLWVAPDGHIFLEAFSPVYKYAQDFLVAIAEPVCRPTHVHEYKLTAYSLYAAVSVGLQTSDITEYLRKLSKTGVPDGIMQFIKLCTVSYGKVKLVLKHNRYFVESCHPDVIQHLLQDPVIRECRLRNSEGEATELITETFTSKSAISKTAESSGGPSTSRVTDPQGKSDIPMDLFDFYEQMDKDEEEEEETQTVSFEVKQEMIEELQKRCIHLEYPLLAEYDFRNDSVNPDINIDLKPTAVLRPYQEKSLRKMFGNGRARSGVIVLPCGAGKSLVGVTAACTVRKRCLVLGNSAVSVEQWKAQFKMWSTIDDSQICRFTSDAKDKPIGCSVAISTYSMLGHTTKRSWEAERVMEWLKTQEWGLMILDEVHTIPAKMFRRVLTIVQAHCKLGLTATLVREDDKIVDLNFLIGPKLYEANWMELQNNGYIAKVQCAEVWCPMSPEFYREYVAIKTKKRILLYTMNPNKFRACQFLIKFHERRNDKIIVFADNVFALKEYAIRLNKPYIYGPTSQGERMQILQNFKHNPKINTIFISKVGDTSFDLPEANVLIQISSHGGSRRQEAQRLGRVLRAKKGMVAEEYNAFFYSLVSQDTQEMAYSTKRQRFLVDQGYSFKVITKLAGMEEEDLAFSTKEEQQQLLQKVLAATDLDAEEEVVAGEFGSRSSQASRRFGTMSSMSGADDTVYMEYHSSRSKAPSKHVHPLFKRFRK
Experimental: Representative images show quantification of ERCC3 western blot intensity with significant Spironolactone-mediated ERCC3 downregulation over 24-72 hours in different glioblastoma cell lines.

[10] = system: 22RV1 (prostate cell line); assay: 22RV1 cell growth / survival in vitro; format: cell-based; settings: 10 μM spironolactone alone
[11] = system: ACHN (renal cell carcinoma cell line); assay: ACHN cell growth / survival in vitro; format: cell-based; settings: 10 μM spironolactone alone
[12] = LP-184 alone, read-out: LP-184 alone IC50 [mean value
[13] = with 5 uM Spironolactone, read-out: LP-184 IC50 [mean value, nM] in combination with 5 uM Spironolactone

| IC50 [2, 12] | IC50 [2, 13] | IC50 [3, 12] | IC50 [3, 13] | decrease in LP-184 IC50s [4] | ERCC3 protein level (western blot) (ERCC3; M1123) | ERCC3 protein level (western blot) (ERCC3; Mayo39) | ERCC3 protein level (western blot) (ERCC3; U87) | SMILES | IC50 [1, 12] | IC50 [1, 13] | tumor regrowth (animals) [5] | tumor growth / tumor regression [6] | reduction of LP-284 IC50 ([7]; by 10 μM spironolactone) | growth rates ([1]; spironolactone alone) | growth rates [8] | growth rates [9] | cytotoxicity ([7]; 10 μM spironolactone treatment alone) | cell growth rates [10] | cell growth rates [11] |
| --- | --- | --- | --- | --- | --- | --- | --- | --- | --- | --- | --- | --- | --- | --- | --- | --- | --- | --- | --- |
| 151 nM | 39.7 nM | 313 nM | 94.3 nM | 3-6 fold |  |  |  | CC1=C(CN(O)C(N)=O)C2=C(C)C3(CC3)[C@@](C)(O)C(=O)C2=C1 [LP-184, (−)-hydroxyureamethyl acylfulvene] | 250 nM | 37.6 nM | 5/5 | complete or near complete tumor regression |  |  |  |  |  |  |  |
|  |  |  |  |  |  |  |  | CC1=C(CN(O)C(N)=O)C2=C(C)C3(CC3)[C@](C)(O)C(=O)C2=C1 [LP-284, (+)-hydroxyureamethyl acylfulvene] |  |  |  |  | 2.4 fold |  |  |  |  |  |  |
|  |  |  |  |  | time-dependent depletion | time-dependent depletion | time-dependent depletion | CC(=O)SC1CC2=CC(=O)CCC2(C)C2CCC3(C)C(CCC34CCC(=O)O4)C12 (stereo not drawn) [Spironolactone, 7α-Acetylthiospirolactone] |  |  |  | no effect on tumor growth |  | did not substantially change the growth rates | did not substantially change the growth rates; also recorded: did not change the cell growth rates | did not substantially change the growth rates | did not cause cytotoxicity | did not change the cell growth rates | did not change the cell growth rates |
